Measurements taken from patent US20070092444A1, “Inhibition of inward sodium currents in cancer” (priority 2003, published 2007).

Legend:
[1] = tested on: U87-MG cells; experiment: Transwell Migration Assay, U87-MG cells; assay type: cell-based, human; details: 3 h, vitronectin
[2] = tested on: primary GBM cultures; experiment: Transwell Migration Assay, primary GBM cultures; assay type: cell-based, human; details: 3 h, vitronectin
Procedure: Approximately 10,000 cells were added to the upper side of a filter insert perforated with 5-8 μm holes, and induced to migrate through these pores toward the extracellular matrix protein vitronectin (coated on the underside of the filter). PcTX1 or control scrambled PcTX1 peptide was added to each compartment at the same time as the cells. BSA-coated filter inserts were used as negative controls. After 3 h, cells were fixed with 4% paraformaldehyde, and subsequently stained with crystal violet. Cells were counted on an inverted microscope, averaging five fields per Transwell chamber. Four-to-ten chambers were used under each condition.

[3] = molecular target: T1, ASIC2 (Homo sapiens, UniProt Q16515); experiment: ASIC2 in planar lipid bilayers; assay type: biochemical
T1 sequence (Q16515 1-512): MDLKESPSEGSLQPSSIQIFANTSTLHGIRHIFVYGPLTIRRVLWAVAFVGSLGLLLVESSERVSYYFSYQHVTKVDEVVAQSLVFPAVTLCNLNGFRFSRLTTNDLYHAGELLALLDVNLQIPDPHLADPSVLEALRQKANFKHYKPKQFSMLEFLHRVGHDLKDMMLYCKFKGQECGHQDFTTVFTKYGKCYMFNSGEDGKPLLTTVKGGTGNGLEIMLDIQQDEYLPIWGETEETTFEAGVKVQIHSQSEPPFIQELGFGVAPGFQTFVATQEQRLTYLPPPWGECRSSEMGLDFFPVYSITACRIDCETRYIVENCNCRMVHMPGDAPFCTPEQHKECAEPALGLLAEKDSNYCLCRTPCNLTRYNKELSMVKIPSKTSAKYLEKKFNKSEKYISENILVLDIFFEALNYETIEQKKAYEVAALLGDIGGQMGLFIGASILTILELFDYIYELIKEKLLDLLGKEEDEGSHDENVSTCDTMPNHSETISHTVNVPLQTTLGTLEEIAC
From the text: Membrane potential was held at −60 mV, and the pHo was step decreased to 4.0 for 10 s, and then returned to 7.4 for 30 s before repeating the sequence.

[4] = tested on: Na^+/H^+ exchange; details: glial / glioma cells; references 72, 73; cited from earlier work
[5] = tested on: ASIC containing channel activity in U87-MG cells; experiment: Single channel recording, outside-out patches from U87-MG cells; assay type: cell-based, human; details: 100 μM amiloride
Procedure: FIGS. 23A and B show single channel records of ASIC-containing channel activity in cell attached (FIG. 23A) and outside-out patches (FIG. 23B) from U87-MG cells.
Single channel recording of ASIC containing channel activity in both cell-attached and outside-out patches from U-87MG cells are shown in FIGS. 23A and B, respectively. For cell-attached patches, the pipette solution contained RPMI 1640, matching the external bath solution used for all whole-cell clamped records. For outside-out patches the pipette solution contained (in mM) K-gluconate, 100; KCl, 30; NaCl, 10; HEPES, 20; EGTA, 0.5; ATP, 4; pH 7.2. Membrane potentials for cell-attached patches were determined as the applied potential plus the membrane potential of the cell that was measured in the whole-cell configuration as −60 mV using the pipette solution for outside-out patches. The membrane potential for outside-out patches was the equilibrium potential for sodium plus the applied potential. The average single channel conductance in the cell-attached configuration was 5.7±0.5 pS. This average conductance was calculated from each of the clamp potentials. This was compatible with the observed whole-cell currents. The kinetics of channel opening and closing were relatively slow (on the order of 0.1 to 1 s), consistent to what has been observed for ASIC-like channels in bilayers (FIG. 23A).

| Compound | diminished ability to migrate through the filter [1] [%] | diminished ability to migrate through the filter [2] [%] | block of inward currents [3] | inhibition of Na^+/H^+ exchange [4] | inhibition of channels [5] |
| --- | --- | --- | --- | --- | --- |
| Psalmotoxin 1 [PcTX1] | > 90 | > 90 | not ASIC2 |  |  |
| N=C(N)NC(=O)c1nc(Cl)c(N)nc1N [amiloride] |  |  |  | can inhibit | completely inhibited |
